Experimental data from PubChem BioAssay AID328 (DTP/NCI, 2004).
Where “and” joins values, the source holds several entries; their conditions need not be identical. Equal entries are not always repeated. Toxic doses and inconclusive results are not listed.

Test system: BDF1 mice, P388 leukemia ip, median survival T/C
Experiment: NCI In Vivo Anticancer Drug Screen. Data for tumor model P388 Leukemia (intraperitoneal) in B6D2F1 (BDF1) mice
Conditions: endpoint: median survival time, higher = longer survival
In short: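 Steps: implant the tumour, treat one group with compound and another with vehicle, record survival, then divide treated by control.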

[1] = dose: 12.5 mg/kg/injection, schedule: Q01DX009 (ip), vehicle: saline
[2] = dose: 25.0 mg/kg/injection, schedule: Q01DX009 (ip), vehicle: saline
[3] = dose: 50.0 mg/kg/injection, schedule: Q01DX009 (ip), vehicle: saline
[4] = dose: 100.0 mg/kg/injection, schedule: Q01DX009 (ip), vehicle: saline
[5] = dose: 100.0 mg/kg/injection, schedule: Q04DX003 (ip), vehicle: saline
[6] = dose: 200.0 mg/kg/injection, schedule: Q01DX009 (ip), vehicle: saline
[7] = dose: 200.0 mg/kg/injection, schedule: Q04DX003 (ip), vehicle: saline
[8] = dose: 400.0 mg/kg/injection, schedule: Q01DX009 (ip), vehicle: saline
[9] = dose: 400.0 mg/kg/injection, schedule: Q04DX003 (ip), vehicle: saline
[10] = dose: 60.0 mg/kg/injection, schedule: Q01DX009 (ip), vehicle: saline with Tween-80
[11] = dose: 100.0 mg/kg/injection, schedule: Q01DX001 (ip), vehicle: saline sonified
[12] = dose: 200.0 mg/kg/injection, schedule: Q01DX001 (ip), vehicle: saline sonified
[13] = dose: 50.0 mg/kg/injection, schedule: Q01DX009 (ip), vehicle: saline with Tween-80
[14] = dose: 100.0 mg/kg/injection, schedule: Q01DX009 (ip), vehicle: saline with Tween-80
[15] = dose: 200.0 mg/kg/injection, schedule: Q01DX009 (ip), vehicle: saline with Tween-80
[16] = dose: 100.0 mg/kg/injection, schedule: Q04DX003 (ip), vehicle: saline with Tween-80
[17] = dose: 200.0 mg/kg/injection, schedule: Q04DX003 (ip), vehicle: saline with Tween-80
[18] = dose: 400.0 mg/kg/injection, schedule: Q04DX003 (ip), vehicle: saline with Tween-80
[19] = dose: 100.0 mg/kg/injection, schedule: Q01DX001 (ip), vehicle: Klucel (hydroxypropylcellulose) (HPC)
[20] = dose: 200.0 mg/kg/injection, schedule: Q01DX001 (ip), vehicle: Klucel (hydroxypropylcellulose) (HPC)
[21] = dose: 400.0 mg/kg/injection, schedule: Q01DX001 (ip), vehicle: Klucel (hydroxypropylcellulose) (HPC)

## COc1cccc(/C=C/[N+](=O)[O-])c1OC
dose: 6.25 mg/kg/injection, schedule: Q01DX009 (ip), vehicle: Klucel (hydroxypropylcellulose) (HPC)
  T/C: 113 % of control
dose: 6.25 mg/kg/injection, schedule: Q01DX009 (ip), vehicle: saline
  T/C: 100 % of control
[1]
  T/C: 106 % of control
dose: 12.5 mg/kg/injection, schedule: Q01DX010 (ip), vehicle: carboxymethylcellulose (CMC)
  T/C: 115 % of control
[2]
  T/C: 104 % of control
dose: 35.0 mg/kg/injection, schedule: Q01DX009 (ip), vehicle: Klucel (hydroxypropylcellulose) (HPC)
  T/C: 117 % of control
[3]
  T/C: 113 % of control
dose: 50.0 mg/kg/injection, schedule: Q04DX003 (ip), vehicle: saline
  T/C: 102 % of control
[4]
  T/C: 104 % of control
[5]
  T/C: 98 % of control
[6]
  T/C: 91 % of control
[7]
  T/C: 95 % of control
[8]
  T/C: 91 % of control
[9]
  T/C: 106 % of control

## COc1cc(O)c(C(=O)c2ccccc2)cc1S(=O)(=O)O
[4]
  T/C: 110 % of control
[5]
  T/C: 109 % of control
[6]
  T/C: 110 % of control
[7]
  T/C: 100 % of control
[8]
  T/C: 110 % of control
[9]
  T/C: 100 % of control

## N#C[S-].N#C[S-].[NH-]CC[NH-].[Pt+4]
dose: 10.0 mg/kg/injection, schedule: Q01DX009 (ip), vehicle: saline with Tween-80
  T/C: 113 % of control
dose: 10.0 mg/kg/injection, schedule: Q04DX003 (ip), vehicle: saline with Tween-80
  T/C: 104 % of control
dose: 20.0 mg/kg/injection, schedule: Q04DX003 (ip), vehicle: saline with Tween-80
  T/C: 100 % of control
dose: 26.4 mg/kg/injection, schedule: Q01DX009 (ip), vehicle: saline with Tween-80
  T/C: 90 % of control
dose: 40.0 mg/kg/injection, schedule: Q01DX009 (ip), vehicle: saline with Tween-80
  T/C: 90 % of control
dose: 40.0 mg/kg/injection, schedule: Q04DX003 (ip), vehicle: saline with Tween-80
  T/C: 86 % of control
[10]
  T/C: 118 % of control

## Nc1nc(CNc2ccc(Cl)cc2)nc(Nc2cccc(Cl)c2)n1
[11]
  T/C: 100 % of control
[12]
  T/C: 105 % of control
dose: 400.0 mg/kg/injection, schedule: Q01DX001 (ip), vehicle: saline sonified
  T/C: 100 % of control

## CCN(CC)c1ccc(C(=C(c2ccc(N(CC)CC)cc2)c2ccc(N(CC)CC)cc2)c2ccc(N(CC)CC)cc2)cc1
dose: 50.0 mg/kg/injection, schedule: Q04DX003 (ip), vehicle: Klucel (hydroxypropylcellulose) (HPC)
  T/C: 100 % of control
dose: 100.0 mg/kg/injection, schedule: Q04DX003 (ip), vehicle: Klucel (hydroxypropylcellulose) (HPC)
  T/C: 104 % of control
dose: 200.0 mg/kg/injection, schedule: Q04DX003 (ip), vehicle: Klucel (hydroxypropylcellulose) (HPC)
  T/C: 90 % of control

## Cc1cc(Cl)ccc1NC(=O)Oc1nc2ccccc2o1
[13]
  T/C: 123 % of control
[14]
  T/C: 106 % of control
[15]
  T/C: 117 % of control

## CC1(C)C2CCC1(C)C(Cl)C2 (stereo not given)
dose: 100.0 mg/kg/injection, schedule: Q04DX002 (ip), vehicle: saline with Tween-80
  T/C: 100 % of control
dose: 200.0 mg/kg/injection, schedule: Q04DX002 (ip), vehicle: saline with Tween-80
  T/C: 103 % of control
dose: 400.0 mg/kg/injection, schedule: Q04DX002 (ip), vehicle: saline with Tween-80
  T/C: 107 % of control

## CCC(C)(OC(C)=O)C(=O)OC1C(=O)OC2CC3C(C)=CC(=O)C(O)C3(C)C3C(O)C(O)C4(C)OCC23C14 (stereo not given)
dose: 0.01 mg/kg/injection, schedule: Q01DX009 (ip), vehicle: saline + alcohol
  T/C: 104 % of control
dose: 0.06 mg/kg/injection, schedule: Q01DX009 (ip), vehicle: saline + alcohol
  T/C: 180 % of control
dose: 0.1 mg/kg/injection, schedule: Q01DX009 (ip), vehicle: saline + alcohol
  T/C: 161 % of control
dose: 0.12 mg/kg/injection, schedule: Q01DX009 (ip), vehicle: saline + alcohol
  T/C: 109 % of control
dose: 0.38 mg/kg/injection, schedule: Q01DX009 (ip), vehicle: saline + alcohol
  T/C: 168 % of control
dose: 0.75 mg/kg/injection, schedule: Q01DX009 (ip), vehicle: saline + alcohol
  T/C: 161 % of control
dose: 2.0 mg/kg/injection, schedule: Q01DX009 (ip), vehicle: saline + alcohol
  T/C: 173 % of control
dose: 3.0 mg/kg/injection, schedule: Q01DX009 (ip), vehicle: saline + alcohol
  T/C: 171 % of control

## CC1(C)OC2OC(COC(=O)c3ccccc3)C(=O)C2O1 (stereo not given)
[14]
  T/C: 92 % of control
[15]
  T/C: 92 % of control
dose: 400.0 mg/kg/injection, schedule: Q01DX009 (ip), vehicle: saline with Tween-80
  T/C: 101 % of control

## CN(C)[C@@H]1C(=O)C(C(=O)NCN2CCN(C(=N)N=C(N)N)CC2)=C(O)[C@@]2(O)C(=O)C3=C(O)c4c(O)cccc4[C@@](C)(O)[C@H]3C[C@@H]12
dose: 0.1 mg/kg/injection, schedule: Q04DX003 (ip), vehicle: saline
  T/C: 124 % of control
dose: 1.0 mg/kg/injection, schedule: Q04DX003 (ip), vehicle: saline
  T/C: 120 % of control
dose: 5.0 mg/kg/injection, schedule: Q04DX003 (ip), vehicle: saline
  T/C: 155 % of control

## CCCCCCC(=O)NC1=C(N2CC2)C(=O)C(NC(=O)CCCCCC)=C(N2CC2)C1=O
dose: 25.0 mg/kg/injection, schedule: Q01DX009 (ip), vehicle: Klucel (hydroxypropylcellulose) (HPC)
  T/C: 182 % of control
[2]
  T/C: 234 % of control
dose: 50.0 mg/kg/injection, schedule: Q01DX009 (ip), vehicle: Klucel (hydroxypropylcellulose) (HPC)
  T/C: 208 % of control
[3]
  T/C: 241 % of control
dose: 66.0 mg/kg/injection, schedule: Q04DX003 (ip), vehicle: saline with Tween-80
  T/C: 166 % of control
dose: 100.0 mg/kg/injection, schedule: Q01DX009 (ip), vehicle: Klucel (hydroxypropylcellulose) (HPC)
  T/C: 154 % of control
[4]
  T/C: 328 % of control
[16]
  T/C: 191 % of control and 200 % of control
dose: 150.0 mg/kg/injection, schedule: Q04DX003 (ip), vehicle: saline with Tween-80
  T/C: 200 % of control
[6]
  T/C: 107 % of control
[17]
  T/C: 154 % of control
[18]
  T/C: 95 % of control

## O=[N+]([O-])c1ccc(S(=O)(=O)Cc2ccccc2)c2c1no[n+]2[O-]
dose: 25.0 mg/kg/injection, schedule: Q01DX009 (ip), vehicle: saline with Tween-80
  T/C: 116 % of control
[13]
  T/C: 116 % of control

## O=C(CNC(=O)Nc1n[nH]c(=S)s1)N/N=C/c1ccc2c(c1)OCO2
[13]
  T/C: 116 % of control
[14]
  T/C: 100 % of control
[15]
  T/C: 98 % of control

## CCCCN(CCCC)c1ccc([N+](=O)[O-])c2no[n+]([O-])c12
dose: 15.0 mg/kg/injection, schedule: Q01DX009 (ip), vehicle: saline with Tween-80
  T/C: 96 % of control
dose: 30.0 mg/kg/injection, schedule: Q01DX009 (ip), vehicle: saline with Tween-80
  T/C: 92 % of control
[10]
  T/C: 91 % of control

## CCCCCCCCCCCCSCCCCSCCCCCCCCCCCC
[11]
  T/C: 100 % of control
[12]
  T/C: 86 % of control

## O=C(CNC(=O)c1cccc(C(=O)NCC(=O)Nc2ccc(C3=NCCN3)cc2)c1)Nc1ccc(C2=NCCN2)cc1
dose: 8.2 mg/kg/injection, schedule: Q01DX009 (ip), vehicle: saline
  T/C: 117 % of control
[2]
  T/C: 169 % of control
[3]
  T/C: 250 % of control

## NCC1OC(OC2C(N)CC(N)C(O)C2OC2OC(CO)C(O)C2O)C(N)C(O)C1O (stereo not given)
[1]
  T/C: 104 % of control
[2]
  T/C: 111 % of control
[3]
  T/C: 111 % of control
[4]
  T/C: 110 % of control and 114 % of control and 120 % of control
dose: 150.0 mg/kg/injection, schedule: Q01DX009 (ip), vehicle: saline
  T/C: 105 % of control
[6]
  T/C: 119 % of control
dose: 225.0 mg/kg/injection, schedule: Q01DX009 (ip), vehicle: saline
  T/C: 99 % of control
[8]
  T/C: 99 % of control

## COC1(OC)C2(Cl)CC(=O)C3CC(=O)C3C1(Cl)C(Cl)=C2Cl (stereo not given)
[19]
  T/C: 103 % of control
[20]
  T/C: 107 % of control
[21]
  T/C: 96 % of control

## O=C(/C=C/c1ccc(O)cc1)c1ccccc1
[16]
  T/C: 118 % of control
[17]
  T/C: 168 % of control
[18]
  T/C: 113 % of control

## O=C(CSCC(=O)c1ccc(Br)cc1)c1ccc(Br)cc1
[19]
  T/C: 100 % of control
[20]
  T/C: 100 % of control
[21]
  T/C: 100 % of control
